Assay results: patent publication US9920010B2, “CXCR7 receptor modulators” (IDORSIA PHARMACEUTICALS LTD, priority 2013, dated 2018)
pEC50: −log10 of the molar value.

Target: T1, CXCR7 (Homo sapiens, UniProt P25106)
T1 construct: host or cells: CHO-K1 (PathHunter CHO-K1 CXCR7 b-arrestin cell line, stably transfected)
Test: PathHunter CHO-K1 CXCR7 b-arrestin recruitment assay (CXCR7 agonistic activity)
Assay type: cell-based
Settings: PathHunter CHO-K1 CXCR7 b-arrestin cell line
In short: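 Stable CHO-K1 line with C-terminally ProLink-tagged CXCR7 and β-arrestin 2–EA fusion; β-arrestin recruitment restores β-gal activity, read by chemiluminescence after 1 h RT detection. Cells seeded 24 h, starved in OPTIMEM 3–4 h, exposed to compounds 90 min at 37 °C in HBSS/HEPES/BSA. Geometric-mean EC50 from repeated measurements.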

T1 sequence (P25106 whole entry): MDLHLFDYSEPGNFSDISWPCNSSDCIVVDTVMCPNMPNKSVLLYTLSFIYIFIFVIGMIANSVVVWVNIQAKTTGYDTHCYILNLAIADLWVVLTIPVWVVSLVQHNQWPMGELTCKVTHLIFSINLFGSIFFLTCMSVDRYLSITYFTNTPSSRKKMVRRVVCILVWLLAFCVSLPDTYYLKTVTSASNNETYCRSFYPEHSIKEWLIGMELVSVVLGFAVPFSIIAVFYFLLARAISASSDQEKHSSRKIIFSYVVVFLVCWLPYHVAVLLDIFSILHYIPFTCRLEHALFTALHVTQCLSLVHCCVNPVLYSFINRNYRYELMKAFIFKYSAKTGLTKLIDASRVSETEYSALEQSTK
T1 sequence (P32121 whole entry partner): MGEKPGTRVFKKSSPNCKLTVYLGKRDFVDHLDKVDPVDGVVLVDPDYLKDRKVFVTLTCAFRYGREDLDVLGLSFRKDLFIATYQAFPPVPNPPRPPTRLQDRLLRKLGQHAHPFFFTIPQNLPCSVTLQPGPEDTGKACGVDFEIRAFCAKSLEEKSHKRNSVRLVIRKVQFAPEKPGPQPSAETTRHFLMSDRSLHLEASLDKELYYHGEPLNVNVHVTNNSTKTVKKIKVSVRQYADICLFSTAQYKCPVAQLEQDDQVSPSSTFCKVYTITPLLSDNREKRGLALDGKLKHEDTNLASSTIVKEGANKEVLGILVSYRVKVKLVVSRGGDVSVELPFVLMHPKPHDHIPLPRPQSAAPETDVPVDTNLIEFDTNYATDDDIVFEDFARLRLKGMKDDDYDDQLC

| pEC50 | Compound |
| --- | --- |
| 7.59 | CN(C)CCN(Cc1ccccc1C(F)(F)F)C(=O)CNc1cccc2c1CN(CC(C)(C)C)CC2 [compound 563, N-(2-Dimethylamino-ethyl)-2-[2-(2,2-dimethyl-propyl)-1,2,3,4-tetrahydro-isoquinolin-8-ylamino]-N-(2-trifluoromethyl-benzyl)-acetamide] |
| 7.39 | O=C(CNc1cccc2c1CN(CC1CC1)CC2)N(CCN1CCC(F)(F)C1)Cc1ncccc1C(F)(F)F [compound 481, 2-(2-Cyclopropylmethyl-1,2,3,4-tetrahydro-isoquinolin-8-ylamino)-N-[2-(3,3-difluoro-pyrrolidin-1-yl)-ethyl]-N-(3-trifluoromethyl-pyridin-2-ylmethyl)-acetamide] |
| 7.80 | CCC(=O)N1CCc2c(cccc2NCC(=O)N(CCN(C)C)Cc2cccc(C(F)(F)F)c2)C1 [Example 33, N-(2-Dimethylamino-ethyl)-2-(2-propionyl-1,2,3,4-tetrahydro-isoquinolin-5-ylamino)-N-(3-trifluoromethyl-benzyl)-acetamide] |
| 7.92 | CN(C)CCN(Cc1ccccc1)C(=O)CNc1cccc2c1CN(C(=O)c1ccccc1)CC2 [compound 195, 2-(2-Benzoyl-1,2,3,4-tetrahydro-isoquinolin-8-ylamino)-N-benzyl-N-(2-dimethylamino-ethyl)-acetamide] |
| 7.09 | CS(=O)(=O)NCCN(Cc1ccccc1C(F)(F)F)C(=O)CNc1cccc2c1CCN(CC1CC1)C2 [Example 230, 2-(2-Cyclopropylmethyl-1,2,3,4-tetrahydro-isoquinolin-5-ylamino)-N-(2-methanesulfonylamino-ethyl)-N-(2-trifluoromethyl-benzyl)-acetamide] |
| 6.52 | CCN1CCc2cccc(NCC(=O)N(CCN3CCCC3=O)Cc3ccccc3C(F)(F)F)c2C1 [compound 517] |
| 6.61 | CCN1CCc2cccc(NCC(=O)N(CCN(C)C)Cc3ccc(OC)cc3)c2C1 [compound 499] |
| 6.43 | COCCN1CCc2c(/C=C/C(=O)N(Cc3ccccc3)C3CCS(=O)(=O)C3)cccc2C1 (centres unmarked) [Example 316, (E)-N-Benzyl-N-(1,1-dioxo-tetrahydro-1l6-thiophen-3-yl)-3-[2-(2-methoxy-ethyl)-1,2,3,4-tetrahydro-isoquinolin-5-yl]-acrylamide] |
| 8.52 | O=C(CNc1cccc2c1CCN(CC1CC1)C2)N(CCN1CCCC1)Cc1ccccc1F [Example 44, 2-(2-Cyclopropylmethyl-1,2,3,4-tetrahydro-isoquinolin-5-ylamino)-N-(2-fluoro-benzyl)-N-(2-pyrrolidin-1-yl-ethyl)-acetamide] |
| 6.47 | CN1CCc2c(cccc2NCC(=O)N(Cc2ccccc2)CC2CC2)C1 [Example 175, N-Benzyl-N-cyclopropylmethyl-2-(2-methyl-1,2,3,4-tetrahydro-isoquinolin-5-ylamino)-acetamide] |
| 7.68 | CCOC(=O)N1CCc2c(cccc2NCC(=O)N(CCNC)Cc2ncccc2C(F)(F)F)C1 [compound 420, 5-({[(2-Methylamino-ethyl)-(3-trifluoromethyl-pyridin-2-ylmethyl)-carbamoyl]-methyl}-amino)-3,4-dihydro-1H-isoquinoline-2-carboxylic acid ethyl ester] |
| 7.64 | CC(C)CN1Cc2cccc(NCC(=O)N(CCN3CCCC3)Cc3ccccc3C(F)(F)F)c2CC1=O [Example 314, 2-(2-Isobutyl-3-oxo-1,2,3,4-tetrahydro-isoquinolin-5-ylamino)-N-(2-pyrrolidin-1-yl-ethyl)-N-(2-trifluoromethyl-benzyl)-acetamide] |
| 6.56 | CCN1CCc2cccc(NCC(=O)N(Cc3ccccc3)C3CCNCC3)c2C1 [compound 377] |
| 7.82 | CN1CCC(N(Cc2ccccc2C(F)(F)F)C(=O)CCc2cccc3c2CCN(CC2CC2)C3)CC1 [compound 160, 3-(2-Cyclopropylmethyl-1,2,3,4-tetrahydro-isoquinolin-5-yl)-N-(1-methyl-piperidin-4-yl)-N-(2-trifluoromethyl-benzyl)-propionamide] |
| 7.96 | Cc1cccnc1CN(CCN(C)C)C(=O)CNc1cccc2c1CCN(CC1CC1)C2 [Example 256, 2-(2-Cyclopropylmethyl-1,2,3,4-tetrahydro-isoquinolin-5-ylamino)-N-(2-dimethylamino-ethyl)-N-(3-methyl-pyridin-2-ylmethyl)-acetamide] |
| 6.78 | CNCCN(Cc1ncccc1C(F)(F)F)C(=O)CNc1cccc2c1CCN(C(=O)NC1CCCCC1)C2 [compound 433] |
| 8.05 | CNCCN(Cc1ncccc1C(F)(F)F)C(=O)CNc1cccc2c1CCN(C(=O)NC(C)C)C2 [compound 430, 5-({[(2-Methylamino-ethyl)-(3-trifluoromethyl-pyridin-2-ylmethyl)-carbamoyl]-methyl}-amino)-3,4-dihydro-1H-isoquinoline-2-carboxylic acid isopropylamide] |
| 8.30 | CN1CCCC1CCN(Cc1ccccc1)C(=O)CNc1cccc2c1CCN(CC1CC1)C2 (racemic) [Example 42, rac-N-Benzyl-2-(2-cyclopropylmethyl-1,2,3,4-tetrahydro-isoquinolin-5-ylamino)-N-[2-(1-methyl-pyrrolidin-2-yl)-ethyl]-acetamide] |

| pEC50 | Compound |
| --- | --- |
| 6.60 | CCN1CCc2cccc(NCC(=O)N(CCN(C)C(=O)OC(C)(C)C)Cc3ccccc3)c2C1 [compound 493] |
| 9.00 | CN(C)CCN(Cc1ccccc1Cl)C(=O)CCc1cccc2c1CCN(CC1CC1)C2 [compound 156, N-(2-Chloro-benzyl)-3-(2-cyclopropylmethyl-1,2,3,4-tetrahydro-isoquinolin-5-yl)-N-(2-dimethylamino-ethyl)-propionamide] |
| 7.96 | CN(C)CCN(Cc1ccccc1C(F)(F)F)C(=O)CNc1c(Cl)ccc2c1CCN(CC1CC1)C2 [Example 88, 2-(6-Chloro-2-cyclopropylmethyl-1,2,3,4-tetrahydro-isoquinolin-5-ylamino)-N-(2-dimethylamino-ethyl)-N-(2-trifluoromethyl-benzyl)-acetamide] |
| 6.79 | CC(C)(C)OC(=O)N1CCC(N(Cc2ccccc2C(F)(F)F)C(=O)CNc2cccc3c2CCN(CC2CC2)C3)C1 (centres unmarked) [Example 254, 3-[[2-(2-Cyclopropylmethyl-1,2,3,4-tetrahydro-isoquinolin-5-ylamino)-acetyl]-(2-trifluoromethyl-benzyl)-amino]-pyrrolidine-1-carboxylic acid tert-butyl ester] |
| 6.63 | CC(C)(O)CN(Cc1ncccc1Cl)C(=O)CNc1cccc2c1CN(C1CCC1)CC2 [compound 457] |
| 7.10 | CCN1CCc2cccc(NCC(=O)N(CCN(C)C)Cc3ccccc3)c2C1 [Example 185, N-Benzyl-N-(2-dimethylamino-ethyl)-2-(2-ethyl-1,2,3,4-tetrahydro-isoquinolin-8-ylamino)-acetamide] |
| 8.05 | O=C(CNc1cccc2c1CCN(CC1CC1)C2)N(Cc1ccccc1C(F)(F)F)C1CCNC1 (racemic) [compound 381] |
| 6.60 | CN(C)CCN(Cc1ccccc1)C(=O)CNc1cccc2c1CCN(CCc1ccccc1)C2 [compound 126] |
| 7.64 | CN(C)CCN(Cc1ccncc1Br)C(=O)CNc1cccc2c1CCN(CC1CC1)C2 [Example 239, N-(3-Bromo-pyridin-4-ylmethyl)-2-(2-cyclopropylmethyl-1,2,3,4-tetrahydro-isoquinolin-5-ylamino)-N-(2-dimethylamino-ethyl)-acetamide] |
| 6.83 | CCN1CCc2cccc(NCC(=O)N(CCNC)Cc3ccccc3)c2C1 [compound 443] |
| 7.23 | CN(C)CCN(Cc1ncccc1Cl)C(=O)CNc1cccc2c1CN(C(=O)[C@H]1C[C@H]1F)CC2 (relative stereo) [compound 459] |
| 7.42 | C#CCOC(=O)N1CCc2c(cccc2NCC(=O)N(CCNC)Cc2ccccc2C(F)(F)F)C1 [compound 396, 5-({[(2-Methylamino-ethyl)-(2-trifluoromethyl-benzyl)-carbamoyl]-methyl}-amino)-3,4-dihydro-1H-isoquinoline-2-carboxylic acid prop-2-ynyl ester] |
| 7.24 | CCN1CCc2cccc(NCC(=O)N(CCN(C)C)Cc3ccc(F)cc3C(F)(F)F)c2C1 [compound 523] |
| 7.54 | COCCN(Cc1ccccc1C(F)(F)F)C(=O)CNc1cccc2c1CCN(CC1CC1)C2 [Example 225, 2-(2-Cyclopropylmethyl-1,2,3,4-tetrahydro-isoquinolin-5-ylamino)-N-(2-methoxy-ethyl)-N-(2-trifluoromethyl-benzyl)-acetamide] |
| 9.00 | CN(CCN(Cc1ccccc1C(F)(F)F)C(=O)CNc1cccc2c1CCN(CC1CC1)C2)C1CCCC1 [compound 451, N-[2-(Cyclopentyl-methyl-amino)-ethyl]-2-(2-cyclopropylmethyl-1,2,3,4-tetrahydro-isoquinolin-5-ylamino)-N-(2-trifluoromethyl-benzyl)-acetamide] |
| 7.62 | CCN1Cc2cccc(NCC(=O)N(CCN(C)C)Cc3ccccc3C(F)(F)F)c2CC1=O [Example 309, N-(2-Dimethylamino-ethyl)-2-(2-ethyl-3-oxo-1,2,3,4-tetrahydro-isoquinolin-5-ylamino)-N-(2-trifluoromethyl-benzyl)-acetamide] |
| 8.40 | CN(C)CCN(Cc1ccccc1C(F)(F)F)C(=O)CNc1cccc2c1CN(C(=O)c1ccccc1)CC2 [compound 552, 2-(2-Benzoyl-1,2,3,4-tetrahydro-isoquinolin-8-ylamino)-N-(2-dimethylamino-ethyl)-N-(2-trifluoromethyl-benzyl)-acetamide] |

| Compound | pEC50 |
| --- | --- |
| CC(C)C(=O)N1CCc2c(cccc2OCC(=O)N(CCN(C)C)Cc2ccccc2)C1 [compound 170] | 7.13 |
| COC(=O)N1CCc2cccc(OCC(=O)N(CCN(C)C)Cc3ccccc3)c2C1 [Example 204, 8-{[Benzyl-(2-dimethylamino-ethyl)-carbamoyl]-methoxy}-3,4-dihydro-1H-isoquinoline-2-carboxylic acid methyl ester] | 7.40 |
| CN(C)CCN(Cc1ccccc1)C(=O)COc1cccc2c1CCN(C)C2 [compound 164] | 7.08 |
